Experimental data: US11236055B2 (Venenum Biodesign, LLC, priority 2016, dated 2022)
pEC50: −log10 of the molar value.

Experiments:
[1] = target: T1, mouse TGR5 receptor (Mus musculus, UniProt Q80SS6); test: Mouse TGR5 cAMP production assay (HTRF, Cisbio cAMP HiRange); type: cell-based; settings: HEK293-EBNA cells overexpressing mouse TGR5, HTRF cAMP HiRange; coded A-D
T1 construct: expressed in transfected cells; host or cells: HEK293-EBNA (293 c18, ATCC CRL10852), Hygromycin B selection
T1 sequence (Q80SS6 1-329): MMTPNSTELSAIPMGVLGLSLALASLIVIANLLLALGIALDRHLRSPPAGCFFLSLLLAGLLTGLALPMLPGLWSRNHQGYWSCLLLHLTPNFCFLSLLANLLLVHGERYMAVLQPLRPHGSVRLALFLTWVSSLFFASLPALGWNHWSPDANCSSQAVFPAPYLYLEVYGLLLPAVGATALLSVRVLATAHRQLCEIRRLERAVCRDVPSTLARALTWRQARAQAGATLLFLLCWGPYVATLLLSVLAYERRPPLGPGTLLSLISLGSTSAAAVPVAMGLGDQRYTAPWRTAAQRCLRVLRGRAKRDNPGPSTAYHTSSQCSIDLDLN
Procedure, shortened: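 cAMP read by HTRF competition after 1 h room-temperature compound exposure of mouse TGR5-overexpressing HEK293-EBNA cells. Cells were suspended in serum-free DMEM containing 500 μM IBMX; compounds ran as 12-point half-log dilutions in duplicate; EC50 derived.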

[2] = target: T2, human TGR5 receptor (Homo sapiens, UniProt Q8TDU6); test: Human TGR5 cAMP production assay; type: cell-based; settings: human TGR5, luminescent cAMP assay; coded A-D; read-out: Human TGR5 Lum. cAMP Activity (EC50)
T2 construct: host or cells: CHO-K1 (hTGR5-CHO cells)
T2 sequence (Q8TDU6 1-330): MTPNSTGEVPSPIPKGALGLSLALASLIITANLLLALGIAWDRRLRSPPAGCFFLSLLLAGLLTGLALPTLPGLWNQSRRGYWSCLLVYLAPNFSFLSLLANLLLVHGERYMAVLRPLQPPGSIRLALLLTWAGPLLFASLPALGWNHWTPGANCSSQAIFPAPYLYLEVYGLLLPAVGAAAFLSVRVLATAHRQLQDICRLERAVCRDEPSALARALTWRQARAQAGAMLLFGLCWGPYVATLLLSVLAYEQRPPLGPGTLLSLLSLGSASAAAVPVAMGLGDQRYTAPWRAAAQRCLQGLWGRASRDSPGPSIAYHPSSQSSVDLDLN
Procedure, shortened: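 Intracellular cAMP read by luminescent enzyme-complementation (XS+) after overnight development, following 1 h room-temperature compound treatment of hTGR5-CHO-K1 cells in IBMX plus anti-cAMP antibody. Compounds tested as half-log dilution series; EC50 derived.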

pEC50 [1]	pEC50 [2]	Compound
6.00 to 7.00	6.00 to 7.00	Cc1c(Cl)cccc1S(=O)(=O)N(CCCC(=O)NCCS(=O)(=O)O)[C@@H](C)c1cccc(-c2ccncc2CO)c1 [Compound 20AP, (S)-2-(4-(3-chloro-N-(1-(3-(3-(hydroxymethyl)pyridin-4-yl)phenyl)ethyl)-2-methylphenylsulfonamido)butanamido)ethanesulfonic acid]
> 7.00	6.00 to 7.00	Cc1cnccc1-c1cccc(C2CN(C(=O)CS(=O)(=O)O)CCN2S(=O)(=O)c2ccccc2C)c1 (centres unmarked) [Compound 49AA, 2-(3-(3-(3-methylpyridin-4-yl)phenyl)-4-(o-tolylsulfonyl)piperazin-1-yl)-2-oxoethanesulfonic acid]
6.00 to 7.00	> 7.00	Cc1c(Cl)cccc1S(=O)(=O)N(CCCC(=O)O)C(C)(C)c1cccc(-c2ccncc2CO)c1 [Compound 16AC, 4-(3-chloro-N-(2-(3-(3-(hydroxymethyl)pyridin-4-yl)-phenyl)propan-2-yl)-2-methylphenylsulfonamido)butanoic acid]
< 4.52	6.00 to 7.00	Cc1c(Cl)cccc1S(=O)(=O)N(CCCC(=O)NCCS(=O)(=O)O)[C@@H](C)c1cccc(-c2ccnnc2)c1 [Compound 20BO, (S)-2-(4-(3-chloro-2-methyl-N-(1-(3-(pyridazin-4-yl)phenyl)ethyl)phenylsulfonamido)butanamido)ethanesulfonic acid]
4.52 to 6.00	6.00 to 7.00	CC(C)(NS(=O)(=O)c1ccccc1C(F)(F)F)c1cccc(-c2ccnnc2)c1 [Compound 1BL]
> 7.00	> 7.00	Cc1cnccc1-c1cccc(C(C)(C)N(CCCC(=O)NCCNc2ncc(C(=O)O)cn2)S(=O)(=O)c2cccc(Cl)c2C)c1 [Compound 27AA, 2-((2-(4-(3-chloro-2-methyl-N-(2-(3-(3-methylpyridin-4-yl)Phenyl)propan-2-yl)phenylsulfonamido)butanamido)ethyl)amino)pyrimidine-5-carboxylic acid]
6.00 to 7.00	> 7.00	COc1cnccc1-c1cccc(C(C)(C)NS(=O)(=O)c2cccc(C(F)(F)F)c2C)c1 [Compound 2BM]
6.00 to 7.00	6.00 to 7.00	Cc1cnccc1-c1cccc(C(C)N(CCCNc2c(NCCC(=O)O)c(=O)c2=O)S(=O)(=O)c2cccc(Cl)c2C)c1 (centres unmarked) [Compound 32AB]
> 7.00	6.00 to 7.00	Cc1cnccc1-c1cccc(C2CN(C(=O)CCC(=O)O)CCN2S(=O)(=O)c2cccc(Cl)c2C)c1 (centres unmarked) [Compound 46AD, 4-(4-((3-chloro-2-methylphenyl)sulfonyl)-3-(3-(3-methylpyridin-4-yl)phenyl)piperazin-1-yl)-4-oxobutanoic acid]
4.52 to 6.00	4.52 to 6.00	COc1cnccc1-c1ccnc(CNS(=O)(=O)c2ccccc2C(F)(F)F)c1 [Compound 1BT]
6.00 to 7.00	> 7.00	Cc1cnccc1-c1cccc([C@H](C)N(CCCCNc2c(NCCS(=O)(=O)O)c(=O)c2=O)S(=O)(=O)c2ccccc2C(F)(F)F)c1
> 7.00	> 7.00	Cc1cnccc1-c1cccc(C(C)(C)N(CCCNS(=O)(=O)CCNC(=O)NCCS(=O)(=O)O)S(=O)(=O)c2cccc(Cl)c2C)c1 [Compound 28AD, 2-(3-(2-(N-(3-((3-chloro-2-methyl-N-(2-(3-(3-methylpyridin-4-yl)phenyl)propan-2-yl)phenyl)sulfonamido)propyl)sulfamoyl)ethyl)ureido)ethane-1-sulfonic acid]
6.00 to 7.00	> 7.00	Cc1cnccc1-c1cccc([C@H](C)N(CCCC(=O)NCCC(=O)NCC(=O)O)S(=O)(=O)c2cccc(Cl)c2C)c1 [Compound 21AM, (S)-2-(3-(4-(3-chloro-2-methyl-N-(1-(3-(3-methylpyridin-4-yl)phenyl)ethyl)phenylsulfonamido)butanamido)propanamido)acetic acid]
6.00 to 7.00	> 7.00	Cc1c(Cl)cccc1S(=O)(=O)N(CCCC(=O)NCCS(=O)(=O)O)C(C)(C)c1cccc(-c2ccncc2CO)c1 [Compound 20AO, 2-(4-(3-chloro-N-(2-(3-(3-(hydroxymethyl)pyridin-4-yl)phenyl)propan-2-yl)-2-methylphenylsulfonamido)butanamido)ethanesulfonic acid]
> 7.00	> 7.00	Cc1cnccc1-c1cccc([C@H](C)N(CCCCO)S(=O)(=O)c2cccc(Cl)c2C)c1 [Compound 39, (S)-3-chloro-N-(4-hydroxybutyl)-2-methyl-N-(1-(3-(3-methylpyridin-4-yl)phenyl)ethyl)Benzenesulfonamide]
6.00 to 7.00	6.00 to 7.00	Cc1cnccc1-c1cccc(C2CN(CCCC(=O)O)CCN2S(=O)(=O)c2cccc(Cl)c2C)c1 (centres unmarked) [Compound 52, 4-(4-((3-chloro-2-methylphenyl)sulfonyl)-3-(3-(3-methylpyridin-4-yl)phenyl)piperazin-1-yl)butanoic acid]
6.00 to 7.00	> 7.00	Cc1cnccc1-c1cccc(C(C)(C)N(CCCNS(=O)(=O)CCNC(=O)NCCCS(=O)(=O)O)S(=O)(=O)c2cccc(Cl)c2C)c1 [Compound 28AE, 3-(3-(2-(N-(3-((3-chloro-2-methyl-N-(2-(3-(3-methylpyridin-4-yl)phenyl)-propan-2-yl)phenyl)sulfonamido)-propyl)sulfamoyl)ethyl)ureido)propane-1-sulfonic acid]
6.00 to 7.00	> 7.00	Cc1cnccc1-c1cccc([C@H](C)N(CCCC(=O)NCCS(=O)(=O)O)S(=O)(=O)c2ccccc2C)c1 [Compound 20AQ, (S)-2-(4-(2-methyl-N-(1-(3-(3-methylpyridin-4-yl)phenyl)ethyl)phenylsulfonamido)butanamido)ethanesulfonic acid]
4.52 to 6.00	4.52 to 6.00	Cc1nccc(-c2cccc(C(C)(C)NS(=O)(=O)c3cccc(C(F)(F)F)c3)c2)c1C [Compound 5AC, N-(2-(3-(2,3-dimethylpyridin-4-yl)phenyl)propan-2-yl)-3-(trifluoromethyl)-benzenesulfonamide]
> 7.00	> 7.00	Cc1cnccc1-c1cccc([C@H](C)N(CCCC(=O)NCCS(=O)(=O)NCCC(=O)O)S(=O)(=O)c2ccccc2C(F)(F)F)c1 [Compound 20BI]
4.52 to 6.00	4.52 to 6.00	Cc1c(Cl)cccc1S(=O)(=O)N1CCN(C(=O)CCC(=O)O)CC1c1cccc(-c2ccncc2)c1 (centres unmarked) [Compound 46AF, 4-(4-((3-chloro-2-methylphenyl)sulfonyl)-3-(3-(pyridin-4-yl)phenyl)piperazin-1-yl)-4-oxobutanoic acid]
4.52 to 6.00	6.00 to 7.00	COc1cnccc1-c1cccc(C2CCCN2S(=O)(=O)c2cccc(C(F)(F)F)c2)c1 (centres unmarked) [Compound 40, 3-methoxy-4-(3-(1-((3-(trifluoromethyl)phenyl)sulfonyl)pyrrolidin-2-yl)phenyl)pyridine]
4.52 to 6.00	6.00 to 7.00	COc1cnccc1-c1cccc(C(C)(C)NS(=O)(=O)c2ccc(C#N)cc2Cl)c1 [Compound 2BN]
6.00 to 7.00	> 7.00	Cc1cnccc1-c1cccc(C(C)(C)N(CCCC(=O)NCCNC(=O)OC(C)(C)C)S(=O)(=O)c2cccc(Cl)c2C)c1 [Compound 20AV, tert-butyl (2-(4-(3-chloro-2-methyl-N-(2-(3-(3-methylpyridin-4-yl)phenyl)propan-2-yl)phenylsulfonamido)butanamido)ethyl)carbamate]
6.00 to 7.00	> 7.00	CCc1cnccc1-c1cccc([C@H](C)N(CCCC(=O)NCC[N+](C)(C)C)S(=O)(=O)c2cccc(Cl)c2C)c1 [Compound 27AE, (S)-2-(4-(3-chloro-N-(1-(3-(3-ethylpyridin-4-yl)phenyl)ethyl)-2-methylphenylsulfonamido)butanamido)-N,N,N-trimethylethanaminium]
6.00 to 7.00	4.52 to 6.00	COc1cccc(S(=O)(=O)N2CCN(C(=O)CCC(=O)O)CC2c2cccc(-c3ccncc3C)c2)c1 (centres unmarked) [Compound 46AJ, 4-(4-((3-methoxyphenyl)sulfonyl)-3-(3-(3-methylpyridin-4-yl)phenyl)piperazin-1-yl)-4-oxobutanoic acid]
6.00 to 7.00	6.00 to 7.00	COc1cnccc1-c1cccc(C(NS(=O)(=O)c2ccccc2C(F)(F)F)c2ccccc2)c1 (centres unmarked) [Compound 1CC]

Compound	pEC50 [1]	pEC50 [2]
CCc1cnccc1-c1cccc(C2CN(C(=O)CP(=O)(O)O)CCN2S(=O)(=O)c2cccc(Cl)c2C)c1 (centres unmarked) [Compound 50]	> 7.00	6.00 to 7.00
